Experimental data from PMC6108835, “Target-Based Discovery of an Inhibitor of the Regulatory Phosphatase PPP1R15B” (Cell, 2018).

Legend:
R15B = target: T1, R15B (Homo sapiens, UniProt Q5SWA1); experiment: Limited trypsin digestion of R15B; settings: R15 3 μM, compound 100 μM, trypsin 5 nM, 5 min, 22°C
T1 construct: cDNAs encoding amino acids 325-636 of R15A and 340-698 of R15B were cloned into pMAL-c5x; made in house; host or cells: E. coli BL21-Gold (DE3) pLysS
Procedure: Reactions were initiated by addition of 5 nM of trypsin from bovine pancreas (Sigma-Aldrich), made up in PBS, and allowed to proceed for 5 min at 22°C, with shaking at 350 rpm. […] Proteins were visualized by staining with InstantBlue Protein Stain (Expedeon).

HD^82Q mice = experiment: Treatment of HD^82Q (N171-82Q) mice, model of Huntington's disease; type: in vivo, mouse
Procedure: To produce an experimental group, HD^82Q transgenic males were crossed with C3H/B6 F1 wild-type females. 4 weeks old treatment- and test-naive transgenic mice and their wild-type littermate controls were randomized in different groups and treated with Raphin1 for the indicated time. Only males HD^82Q were used. Mice weight was collected weekly or bi-weekly.
Mice were culled by cervical dislocation, a part of cortex was extracted, fresh-frozen in liquid nitrogen and kept at −80°C until use. Tissue was homogenized and lysed in Laemmli Buffer (1 mL for 0.5 mg tissue). Lysates were boiled at 95°C for 5 min, sonicated and resolved on Bolt SDS-PAGE 4%–12% Bis-Tris gels (ThermoFisher Scientific). Proteins were transferred to the nitrocellulose membrane (Bio-Rad). Membrane was blocked in 5% skimmed milk for 30 min and then probed with primary antibodies followed by incubation with the appropriate horseradish peroxidase-conjugated secondary antibodies (Promega). Proteins were visualized using ECL Prime (GE Healthcare) and imaged in the Chemi-Smart 5000 (Vilber-Lourmat, France). SDS-resistant huntingtin assemblies were quantified using ImageJ (NIH, USA). The huntingtin assemblies were analyzed using the huntingtin 2B4 antibody (Euromedex (#HU-2B4), 1:1,000).
Mice were culled by cervical dislocation, a brain was fresh frozen in the O.C.T. compound (VWR International) and sectioned (14 μm) using Cryostat (Leica CM3050 S). […]
For quantification, motor cortex was imaged using a Nikon TiE automated fluorescence microscope under the control of NIS Elements software (Nikon UK). Images were taken using a 40X 0.95 NA lens, fluorescence filter sets matched to Hoechst 33342 and Alexa 488 and an Andor Neo sCMOS camera. […] Images were analyzed using the ‘general analysis’ tool in NIS Elements. […] The total number of nuclei per field and the total number of inclusions inside nuclei per field were counted in each filed. […] To check for systematic bias in our analysis due to variations in sample processing we also measured the average fluorescence intensity across the whole field. […]

PP1c = PP1c (Homo sapiens, UniProt P36873); experiment: PP1c catalytic activity assay (DiFMUP, EnzChek); settings: his-PP1c 30 nM
Sequence of PP1c (P36873 1-322): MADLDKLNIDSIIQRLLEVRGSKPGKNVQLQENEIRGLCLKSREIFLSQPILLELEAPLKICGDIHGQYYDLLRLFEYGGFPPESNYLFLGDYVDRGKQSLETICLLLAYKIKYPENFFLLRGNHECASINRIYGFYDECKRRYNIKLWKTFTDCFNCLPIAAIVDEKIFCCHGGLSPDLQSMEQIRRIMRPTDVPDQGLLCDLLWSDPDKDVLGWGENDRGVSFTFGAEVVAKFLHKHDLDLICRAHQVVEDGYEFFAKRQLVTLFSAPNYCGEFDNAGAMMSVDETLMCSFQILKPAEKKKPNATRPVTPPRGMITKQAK
Procedure: Residual activity of PP1c was measured using the EnzChek Phosphatase Assay Kit (ThermoFisher Scientific) according to the supplier’s instructions, with minor modifications.

R15b −/− cells = experiment: eIF2α phosphorylation and translation rates in R15b −/− MEF cells; type: cell-based, mouse; settings: 10 μM
Procedure: HeLa or MEF cells (90,000 cells/mL) were plated in 12-well plates (1 mL/well). The following day cells were treated as indicated; the medium was removed, fresh medium containing compound added and incubated at 37°C for the times indicated. The time course was performed in reverse order to facilitate collecting all samples at the same time. At the end of treatment cells were washed two times with ice-cold PBS and lysed in 150 μL Laemmli Buffer. Lysates were transferred to 1.5 mL eppendorf tubes, boiled at 95°C for 5 min, sonicated and resolved on Bolt SDS-PAGE 4%–12% Bis-Tris gels (ThermoFisher Scientific). Proteins were transferred to the nitrocellulose membrane using the iBlot 2 system (ThermoFisher Scientific). Membrane was blocked in 5% skimmed milk for 30 min and then probed with primary antibodies followed by incubation with the appropriate horseradish peroxidase-conjugated secondary antibodies (Promega). Proteins were visualized using ECL Prime (GE Healthcare) and imaged in the Chemi-Smart 5000 (Vilber-Lourmat, France) or ChemiDoc Touch (BioRad). Bands were quantified using ImageJ (NIH, USA). […]
HeLa or MEF cells (90,000 cells/mL) were plated in 12-well plates (1 mL/well). […] The gels were then exposed to a Storage Phosphor Screen (GE Healthcare) and analyzed by phosphorimaging using a Typhoon Imager Scanner (GE Healthcare).

[1] = HD^82Q mice, 2 mg/kg daily from 4 weeks of age, 2-month-old

T1 sequence (Q5SWA1 340-698): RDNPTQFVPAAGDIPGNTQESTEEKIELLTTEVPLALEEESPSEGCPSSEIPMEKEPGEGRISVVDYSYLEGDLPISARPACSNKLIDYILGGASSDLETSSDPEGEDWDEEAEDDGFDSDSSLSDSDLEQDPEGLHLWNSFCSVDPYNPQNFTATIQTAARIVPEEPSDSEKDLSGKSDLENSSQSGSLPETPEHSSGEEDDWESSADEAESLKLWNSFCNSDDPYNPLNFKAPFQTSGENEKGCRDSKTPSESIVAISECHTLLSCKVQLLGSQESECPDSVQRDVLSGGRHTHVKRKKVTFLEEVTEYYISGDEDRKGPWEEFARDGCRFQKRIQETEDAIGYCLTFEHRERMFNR

## [H]/N=C(\N)NN=Cc1cccc(Cl)c1Cl [Raphin1, (E)-2-(2,3-dichlorobenzylidene)hydrazine-1-carboximidamide]
R15B
  Protease sensitivity of R15B (limited proteolysis, conformational change): protected
HD^82Q mice; 2 mg/kg once a day by oral gavage from 4 to ∼10 weeks of age
  Weight of HD^82Q mice: improved
HD^82Q mice; [1]
  Nuclear huntingtin inclusions in the cortex: decreased
  SDS-insoluble huntingtin assemblies in cortex: decreased
PP1c
  Inhibition of PP1c (dephosphorylation of difluoro-4-methylumbelliferyl phosphate): did not inhibit
R15b −/− cells
  Measurable effects on eIF2α phosphorylation and translation: abolished
